In patent US6630462B2, “Delta agonist analgesics” (Adolor Corporation, priority 2000, dated 2003):
Read-outs that look alike come from different tables or passages of the source.

Tests used:
[1] = target: cloned human δ opioid receptor (Homo sapiens, UniProt P41143); assay: Opioid receptor binding assay, [3H]diprenorphine, CHO cell membranes; conditions: for Ki: cloned human δ receptor in CHO membranes, read-out: Ki, inhibition of [3H]diprenorphine binding, δ
Protocol: (§1) Chinese hamster ovary (CHO) cells are stably transfected with the cloned human μ, κ, or δ opioid receptors. Cells are harvested by scraping them from the culture flask, centrifuging them at 1000×g for 10 min, resuspending them in buffer A and centrifuging again to remove growth medium. The cells are resuspended again in buffer A and homogenized for 30 seconds using a Polytron homogenizer (Brinkmann) at setting 8. The homogenate is centrifuged at 48,000×g for 10 min at 4° C. The pellets are resuspended at 1 mg of protein per mL of buffer A and aliquots stored at −80° C. until use. Buffer A is 50 mM Tris HCl, pH 7.8, containing 1.0 mM EGTA, 5 mM MgC12, 10 mg/mL leupeptin, 10 mg/mL pepstatin A, 200 mg/mL bacitracin, and 0.5 mg/mL aprotinin.
The filters are rinsed 4×1 mL with cold 50 mM Tris HCl, pH 7.8 and radioactivity remaining on the filters is determined by scintillation spectroscopy. Ki values are determined by Cheng-Prusoff corrections of IC50 values derived from nonlinear regression fits of 12 point titration curves using the program Prism© (GraphPad Software, San Diego, Calif.).

[2] = target: cloned human κ opioid receptor (Homo sapiens, UniProt P41145); assay: as above; conditions: for inhibition at 10 µM: [3H]diprenorphine binding
Protocol: as §1
(§2) Receptor binding assays contain 0.4-1.0 nM [3H]diprenorphine (˜40,000 dpm), test compound as appropriate, and membrane preparation in a total volume of 0.5 mL buffer A. After incubation at room temperature for one hour, the samples are filtered through Whatman GF/B filters that have been presoaked in a solution of 0.5% (w/v) polyethylenimine and 0.1% (w/v) bovine serum albumin in water. The filters are rinsed 4×1 mL with cold 50 mM Tris HCl, pH 7.8 and radioactivity remaining on the filters is determined by scintillation spectroscopy. Ki values are determined by Cheng-Prusoff corrections of IC50 values derived from nonlinear regression fits of 12 point titration curves using the program Prism© (GraphPad Software, San Diego, Calif.).

[3] = target: cloned human μ opioid receptor (Homo sapiens, UniProt P35372); assay: as above; conditions: for inhibition at 10 µM: read-out: % Inhibition @ 10 μM, μ
Protocol: as §1, §2

[4] = target: human δ opioid receptor (Homo sapiens, UniProt P41143); assay: Opioid receptor-mediated stimulation of [35S]GTPγS binding; type: biochemical
Protocol: as §1, with “Buffer A is 50 mM Tris HCl, pH 7.8, containing 1.0 mM EGTA, 5 mM MgC12, 10 mg/mL leupeptin, 10 mg/mL pepstatin A, 200 mg/mL bacitracin, and 0.5 mg/mL aprotinin.” left out
Assays contain 80-100 pM [35S]GTPγS, […], 75 mM NaCl, 15 mM MgCl2, 1.0 mM EGTA, 2.1 mM dithiothreitol, 10 mg/mL leupeptin, 10 mg/mL pepstatin A, 200 mg/mL bacitracin, 0.5 mg/mL aprotinin, […] of membrane protein and agonist as appropriate in a final total volume of […] of 50 mM Tris HCl, pH 7.8 in 96 well Basic Flashplates® (NEN). After incubation for one hour at room temperature, the samples are centrifuged at 800×g at 4° C. for 5 min and the radioactivity (cpm) bound to the membranes is determined by scintillation spectrometry.
To determine the IC50 value, which is the concentration to give half-maximal inhibition of agonist-stimulated [35S]GTPγS binding, the cpm of [35S]GTPγS bound in the presence of a fixed concentration of agonist and various concentrations of antagonist is measured. […]

[5] = system: formalin-induced flinching, late phase; assay: Formalin-induced flinching; type: in vivo, Sprague-Dawley rats; conditions: rat, 300 μg i.paw, late phase 20-35 min after formalin
Protocol: Male Sprague-Dawley rats weighing 80-120 g are injected s.c. with […] of a 5% formalin solution into the dorsal surface of the right hind paw (i.paw). The flinching behavior is quantified by counting the number of responses that occur during the tonic (late) phase of pain, lasting from 20-35 min after formalin injection. The test compounds are injected i.paw 10 min prior to the formalin injection. The mean percent antagonism (%A) of formalin-induced flinching for drug treated, formalin injected rats is calculated according to the following formula: %A=(Mean formalin response−Mean saline response)−Individual response×100/Mean formalin response−Mean saline response The mean formalin response is the mean number of flinches in rats treated with vehicle prior to the formalin injection. The mean saline response is the mean number of flinches in rats treated with […] saline instead of formalin.

[6] = system: acetic acid-induced writhing; assay: Acetic acid-induced writhing; type: in vivo, ICR mice; conditions: sc; mouse, s.c., 15 min before acetic acid
Protocol: Male ICR mice weighing 20-25 g are injected s.c. with either vehicle or test compound 15 min before they are injected intraperitoneally with 0.6% acetic acid. At 5 min after treatment with acetic acid, the number of writhes is counted for 10 min. Dose response curves are expressed as the percent inhibition of acetic acid induced writhing, when compared to the mean number of writhes observed in vehicle-treated mice.
The mean percent inhibition (%I) of acetic acid-induced writhing for drug-treated rats is calculated according to the following formula: [formula]
The mean individual response is the mean number of writhes in rats treated with test compound. The mean vehicle response is the mean number of writhes in rats treated with vehicle.

[7] = system: seizures in mice; assay: Drug-induced seizures; type: in vivo; conditions: for induction of seizures: s.c., doses up to 30 mg/kg, observed 30 min
Protocol: Mice are injected s.c. with either vehicle (1:1:8, DMSO: Cremophor: Saline), clozapine (3-30 mg/kg), or DMCLZ (3-30 mg/kg). Immediately after injection, the mice are placed in individual plastic cages (30×16×12 cm) lined with bedding. The mice are observed for gross behavioral signs for 30 min, and the presence or absence of seizures is noted.
To determine the role of δ opioid receptors in mediating clozapine-induced seizures, mice are pretreated with either saline or the selective δ antagonist naltrindole (NTI) (1 mg/kg, s.c.) 20 min prior to treatment with vehicle or 30 mg/kg of clozapine.

[8] = human patients; cited from earlier work
[9] = 10 μM, [3H]diprenorphine binding

Sequence of cloned human κ opioid receptor (P41145 whole entry): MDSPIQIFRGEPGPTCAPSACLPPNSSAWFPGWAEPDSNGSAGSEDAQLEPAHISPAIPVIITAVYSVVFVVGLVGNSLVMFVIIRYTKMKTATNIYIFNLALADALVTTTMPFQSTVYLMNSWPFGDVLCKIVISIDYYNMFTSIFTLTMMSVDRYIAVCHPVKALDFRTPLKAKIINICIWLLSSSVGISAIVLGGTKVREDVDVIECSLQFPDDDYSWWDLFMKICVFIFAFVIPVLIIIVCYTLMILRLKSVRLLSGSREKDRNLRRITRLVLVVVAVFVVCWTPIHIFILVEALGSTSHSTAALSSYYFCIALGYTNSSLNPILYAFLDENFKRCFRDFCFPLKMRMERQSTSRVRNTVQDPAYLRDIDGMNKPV
Sequence of cloned human μ opioid receptor (P35372 whole entry): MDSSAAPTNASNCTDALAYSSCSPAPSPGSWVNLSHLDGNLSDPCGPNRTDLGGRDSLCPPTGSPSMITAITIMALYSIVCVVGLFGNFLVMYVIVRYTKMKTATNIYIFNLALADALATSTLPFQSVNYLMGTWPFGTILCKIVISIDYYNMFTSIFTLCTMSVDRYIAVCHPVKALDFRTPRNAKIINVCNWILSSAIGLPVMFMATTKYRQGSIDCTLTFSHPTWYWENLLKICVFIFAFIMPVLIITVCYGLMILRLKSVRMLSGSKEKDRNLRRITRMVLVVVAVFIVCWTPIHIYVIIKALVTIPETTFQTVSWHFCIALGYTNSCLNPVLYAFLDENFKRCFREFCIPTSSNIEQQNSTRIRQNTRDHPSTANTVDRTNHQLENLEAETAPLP
Sequence of cloned human δ opioid receptor (P41143 whole entry): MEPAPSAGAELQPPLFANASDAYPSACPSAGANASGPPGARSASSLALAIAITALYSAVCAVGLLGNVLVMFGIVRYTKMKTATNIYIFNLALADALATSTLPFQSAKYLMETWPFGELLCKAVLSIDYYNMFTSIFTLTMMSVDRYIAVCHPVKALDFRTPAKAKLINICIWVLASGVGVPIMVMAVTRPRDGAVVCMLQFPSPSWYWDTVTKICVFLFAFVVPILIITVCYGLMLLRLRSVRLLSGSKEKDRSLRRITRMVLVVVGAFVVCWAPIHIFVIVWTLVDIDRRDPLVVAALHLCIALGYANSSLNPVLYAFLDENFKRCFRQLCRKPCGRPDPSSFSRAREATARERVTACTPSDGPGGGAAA
Sequence of human δ opioid receptor (P41143 whole entry): as above

Work on `CN1CCN(C2=Nc3ccccc3Oc3ccc(Cl)cc32)CC1` [Loxapine] yielded an inhibition at 10 µM [1, 9] of 26%, an inhibition at 10 µM [2] of 27% and an inhibition at 10 µM [3, 9] of 0%.
With `C=CCN1C[C@H](C)N([C@H](c2ccc(C(=O)N(CC)CC)cc2)c2cccc(O)c2)C[C@H]1C` [BW373U86] the Ki ([2]; cloned human κ receptor in CHO membranes, read-out: Ki, inhibition of [3H]diprenorphine binding, κ) was 149 nM and the Ki ([3]; cloned human μ receptor in CHO membranes, read-out: Ki, inhibition of [3H]diprenorphine binding, μ) was 96 nM.
In the case of `Clc1ccc2c(c1)N=C(N1CCNCC1)c1ccccc1N2` [N-desmethylclozapine], the Ki [1] is reported as 24 nM, the inhibition at 10 µM [2] is reported as 64% and the inhibition at 10 µM [3, 9] is reported as 17%. The EC50 [4] was 290 nM, the “agonist character at the human δ opioid receptor” value ([4]; FIG. 3) was “full agonist” and the “percent antagonism (% A) of formalin-induced flinching” value [5] was 56 % A. The ED50 [6] was 2.2 mg/kg, the induction of seizures [7] was “does not induce seizures” and the induction of seizures ([7]; listed as DMCLZ) was “does not produce seizures”. The plasma level [8] was roughly 620 nM.
`CN1CCN(C2=Nc3cc(Cl)ccc3Nc3ccccc32)CC1` [Clozapine, 8-chloro-11-(4-methyl-1-piperazinyl)-5H-dibenzo[b,e][1,4]-diazepine] gave a Ki [1] of 928 nM, an inhibition at 10 µM [2] of 11% and an inhibition at 10 µM [3, 9] of 17%. For the same molecule, the “blockade of clozapine-induced seizures by the selective δ antagonist naltrindole” value ([7]; naltrindole 1 mg/kg s.c. 20 min before 30 mg/kg clozapine) was “not blocked”.
Work on `C=CCN1C[C@H](C)N([C@H](c2ccc(C(=O)N(CC)CC)cc2)c2cccc(OC)c2)C[C@H]1C` [SNC-80] yielded an inhibition at 1 µM ([2]; read-out: % Inhibition @ 1.0 μM, κ) of 2% and an inhibition at 10 µM [3] of 5.5%.
In the case of `Clc1ccc2c(c1)C(N1CCNCC1)=Nc1ccccc1O2` [Amoxapine], the inhibition at 10 µM [2] is reported as 25% and the inhibition at 10 µM [3, 9] is reported as 18%.
